Legend:
Format in all cases: in vivo
[1] = test system: Cabbage Looper [Trichoplusia ni (Hubner)]; assay: Cabbage looper leaf dip (CL), 3-5 days; conditions: percent in solution, second-instar larvae
Protocol: (§1) The compounds in Tables 1 and 2 above were tested for insecticidal activity using the following testing procedures. LC50 values, based on the results of these tests and calculated according to dosage-mortality curves, are expressed in Table 3.
Cabbage Looper [Trichoplusia ni (Hubner)]:
Test compounds were diluted in a 50-50 acetone-water solution. Cotyledons of hyzini squash (Calabacita abobrinha), approximately 1×1.5 inches, were immersed in the test solutions for 2-3 seconds and placed on a wire screen to dry. The dried leaves were placed in petri dishes containing a moistened piece of filter paper and infested with 5 second-instar cabbage looper larvae. The dishes were placed in a high humidity chamber. Mortality of the larvae was recorded 3-5 days later. Test concentrations ranged from 0.1% downward. The LC-50 value is expressed below in Table 3 under the heading "CL" in terms of percent of the test compound in solution.

[2] = test system: Housefly [Musca domestica]; assay: Housefly contact mortality in dishes (HF), 48 hours; conditions: μg of test compound per 25 female flies
Protocol: as §1
Housefly [Musca domestica]:
Test compounds were diluted in acetone and aliquots pipetted onto the bottom of aluminum dishes. To ensure even spreading of the chemical on the bottom of the dishes, 1 ml of acetone containing 0.01% peanut oil was also added to each dish. After all solvents had evaporated, the dishes were placed in circular cardboard cages containing 25 female houseflies, 1-2 days old. The cages were covered on the bottom with cellophane and on the top with tulle netting, and each contained a sugar-water saturated cotton plug for maintenance of the flies. Mortality was recorded after 48 hours. Test levels ranged from 100 μg/25 female houseflies downward. The LC-50 value is expressed below in Table 3 under the heading "HF", in terms of μg of the test compound per 25 female flies.

[3] = test system: Tobacco Budworm [Heliothis virescens (Fabricius)] eggs; assay: Tobacco budworm eggs (TBW-E); conditions: percent in solution; 2-day old eggs
Protocol: as §1
Tobacco Budworm [Heliothis virescens (Fabricius)]:
(b). Eggs: Paper towel patches of 2-day old eggs of the tobacco budworm were dipped in acetone solutions of the test compound and placed in petri dishes containing a portion of larval rearing medium. Treated eggs were maintained at 78° F. and mortality was recorded after all control eggs had hatched and the young larvae were feeding on the media. Test concentrations ranged from 0.1% downward. The LC-50 value is expressed below in Table 3 under the heading "TBW-E" in terms of percent of the test compound in the solution.

| Compound | LC50 CL [1] [%] | LC50 HF [2] [µg] | LC50 TBW E (eggs) [3] [%] |
| --- | --- | --- | --- |
| CC(C)(F)C(=Nc1ccc(F)c(F)c1)OCc1cccc(Oc2ccc(F)cc2)c1 [Compound 318] | 0.0007 | 19 | > 0.1 |
| CCC(CC)C(=Nc1cccc(C(F)(F)F)c1)OCc1cccc(Oc2ccc(F)cc2)c1 [Compound 291] | 0.004 | > 100 | > 0.1 |
| CC(C)C(=Nc1ccc(F)c(F)c1)OCc1coc(Cc2ccccc2)c1 [Compound 485] | > 0.1 | 24 | > 0.1 |
| CC(C)C(=Nc1ccc(F)c(Cl)c1)OCc1ccc(F)c(Br)c1 [Compound 473] | 0.025 | > 100 | > 0.1 |
| CC(C)C(=Nc1cccc(C(F)(F)F)c1)OCc1ccc(OCc2ccc(F)cc2)cc1 [Compound 488] | 0.025 | > 100 | > 0.1 |
| CC(C)C(=Nc1cccc(C(F)(F)F)c1)OCc1ccc(OCc2ccccc2)cc1 [Compound 476] | 0.015 | > 100 | > 0.1 |
| CC(C)C(=Nc1ccc(F)cc1)OCc1cccc(Oc2ccc(F)cc2)c1 [Compound 197] | 0.0004 | > 100 | 0.05 |
| CC(C)C(=Nc1ccc(F)c(Cl)c1)OCc1coc(Cc2ccccc2)c1 [Compound 474] | 0.0012 | 8 | > 0.1 |
| CC(C)(F)C(=Nc1ccc(F)c(Cl)c1)OCc1cccc(Oc2ccc(F)cc2)c1 [Compound 309] | 0.00017 | > 100 | 0.07 |
| CC(C)C(=Nc1ccc2c(c1)OCO2)OCc1cccc(Oc2ccccc2)n1 [Compound 467] | 0.003 | 6 | 0.04 |
| CC(C)C(=Nc1cccc(F)c1)OCc1cccc(Oc2ccc(F)cc2)c1 [Compound 200] | 0.00075 | 7.5 | 0.1 |
| CCC(CC)C(=Nc1ccc(Cl)cc1)OCc1cccc(Oc2ccc(F)cc2)c1 [Compound 290] | 0.017 | > 100 | > 0.1 |
| CCCC(=Nc1ccc(OC)cc1)OCc1cccc(Oc2ccccc2)c1 [Compound 184] | 0.024 | 61 | > 0.1 |
| CCC(C)C(=Nc1ccc(Cl)c(Cl)c1)OCc1cccc(Oc2ccccc2)c1 (stereo not drawn) [Compound 39] | 0.0023 | > 100 | > 0.1 |
| CCC(=Nc1ccc(Cl)c(Cl)c1)OCc1cccc(Oc2ccccc2)c1 [Compound 36] | 0.024 | 20 | > 0.1 |
| CC(C)C(=Nc1ccc(Cl)cc1Cl)OCc1cccc(Oc2ccc(F)cc2)c1 [Compound 312] | 0.006 | > 100 | > 0.1 |
| CC(C)C(=Nc1ccc(C(C)(C)C)cc1)OCc1cccc(Oc2ccccc2)n1 [Compound 496] | 0.006 | > 100 | > 0.1 |
| Cc1ccc(Oc2cccc(COC(=Nc3ccc(F)c(Cl)c3)C(C)C)n2)cc1 [Compound 494] | 0.003 | 34 | > 0.1 |
| Cc1ccc(Oc2cccc(COC(=Nc3cccc(C(F)(F)F)c3)C(C)C)n2)cc1 [Compound 495] | 0.012 | > 100 | 0.1 |

| Compound | LC50 CL [1] [%] | LC50 HF [2] [µg] | LC50 TBW E (eggs) [3] [%] |
| --- | --- | --- | --- |
| CC(C)C(=Nc1ccc(C2CCCCC2)cc1)OCc1cccc(Oc2ccc(F)cc2)c1 [Compound 280] | 0.024 | > 100 | > 0.1 |
| CC(C)C(=Nc1ccc2c(c1)OC(C)(C)O2)OCc1cccc(Oc2ccccc2)c1 [Compound 182] | 0.0006 | 28 | 0.04 |
| CC(C)C(=Nc1ccc(Cl)c(Cl)c1)OCc1cccc(Oc2cccc(Cl)c2)c1 [Compound 207] | 0.008 | > 100 | > 0.1 |
| CC(C)C(=Nc1ccc(C(C)(C)C)c(Cl)c1)OCc1cccc(Oc2ccc(F)cc2)c1 [Compound 308] | 0.009 | > 100 | > 0.1 |
| COc1ccc(N=C(OCc2cccc(Oc3ccc(F)cc3)c2)C(C)C)cc1Cl [Compound 110] | 0.007 | 26 | 0.04 |
| CC(C)C(=Nc1cccc(Oc2ccccn2)c1)OCc1cccc(Oc2ccccc2)c1 [Compound 114] | < 0.1 | 92 |  |
| CC(C)C(=Nc1cccc(C#N)c1)OCc1cccc(Oc2ccccc2)c1 [Compound 126] | 0.08 | > 100 | > 0.1 |
| CCC(=Nc1ccc(C(C)C)cc1)OCc1cccc(Oc2ccc(F)cc2)c1 [Compound 320] | 0.0075 | > 100 | > 0.1 |
| CC(C)C(=Nc1cccc(C(F)(F)F)c1)OCc1cccc(Oc2ccc(Br)cc2)n1 [Compound 493] | 0.0008 | 36 | 0.05 |
| CCC(C)C(=Nc1ccc2c(c1)OCO2)OCc1cccc(Oc2ccccc2)c1 (stereo not drawn) [Compound 185] | 0.0006 | 13 | 0.075 |
| CCC(=Nc1cccc(Cl)c1Cl)OCc1cccc(Oc2ccccc2)c1 [Compound 28] | 0.009 | > 100 | > 0.1 |
| CC(C)C(=Nc1ccc(C(F)(F)F)cc1)OCc1ccc(F)c(Oc2ccc(F)cc2)c1 [Compound 287] | 0.0025 | > 100 | > 0.1 |
| CC(C)C(=Nc1cccc(C(F)(F)F)c1)OCc1cccc(OCc2ccc(F)cc2)c1 [Compound 489] | < 0.1 | > 100 | > 0.1 |
| CC(C)C(=Nc1ccc2c(c1)OCO2)OCc1cccc(Oc2ccccc2F)c1 [Compound 183] | 0.00075 | 10 | 0.075 |
| CC(C)C(=Nc1ccc(Cl)c(Cl)c1)OCc1cccc(Oc2cccc(F)c2)c1 [Compound 40] | 0.0025 | 36 | 0.08 |
| CC(C)(F)C(=Nc1cccc(C(F)(F)F)c1)OCc1cccc(Oc2ccc(F)cc2)c1 [Compound 319] | 0.0007 | 44 | > 0.1 |
| CC(C)C(=Nc1ccc(F)cc1)OCc1coc(Cc2ccccc2)c1 [Compound 491] | 0.0028 | 9 | 0.08 |
| CCCCC(=Nc1ccc(F)c(Cl)c1)OCc1cccc(Oc2ccccc2)c1 [Compound 121] | 0.1 | > 100 | > 0.1 |
| CC(C)C(=Nc1ccc(F)c(Cl)c1)OC(F)c1cccc(Oc2ccc(F)cc2)c1 (stereo not drawn) [Compound 502] |  | 80 |  |

Reference: US5045566A, “Novel imidate insecticides” (ICI Americas Inc., priority 1989, dated 1991)
